Assay results published in US7026328B2, “Heterocyclic compounds which inhibit leukocyte adhesion mediated by α4 integrins” (Elan Pharmaceuticals, Inc., priority 2002, dated 2006).

Columns and labels:
[1] = molecular target: T1, α4β1 integrin (Homo sapiens, UniProt P05556+P13612); assay: α4β1 Integrin Adhesion Assay: Jurkat Cell Adhesion to Human Plasma Fibronectin; type: cell-based; conditions: Jurkat cells
T1 construct: Jurkat™ cells (maintained in log phase growth) were labeled with Calcein AM; endogenous in cells; host or cells: Jurkat cells
Experimental: 96 well plates (Costar 3590 EIA plates) were coated with human fibronectin (Gibco/BRL, cat #33016–023) at a concentration of 10 μg/mL overnight at 4° C. The plates were then blocked with a solution of bovine serum albumin (BSA; 0.3%) in saline. Jurkat™ cells (maintained in log phase growth) were labeled with Calcein AM according to the manufacturer's instructions, and suspended at a concentration of 2×10^6 cells/mL in Hepes/Saline/BSA. The cells were then exposed to test and control compounds for 30 minutes at room temperature before transfer to individual wells of the fibronectin coated plate. Adhesion was allowed to occur for 35 minutes at 37° C. The wells were then washed by gentle aspiration and pipetting with fresh saline. Fluorescence associated with the remaining adherent cells was quantified using a fluorescence plate reader at EX 485/EM 530.
Cell cultures were prepared by first splitting the stationary phase Jurkat™ cells at 1:10 on day one, and 1:2 on day two to perform assay on day 3. The cells split 1:10 on day one were split 1:4 on day 3 for a day 4 assay.
The assay plates were prepared by first making a working solution of Gibco/BRL Human Fibronectin (cat #33016-023) in PBS++, at 10 μg/mL. A Costar 3590 EIA plate was then coated with 50 μL/well for 2 hours at room temperature (thought it can also be left overnight at 4° C.). Finally the plate was asperated and blocked with Hepes/Saline Buffer, 100 μL/well, for 1 hour at RT followed by washing 3× with 150 μL of PBS++.
Compound dilutions were accomplished by preparing 1:3 serial dilutions of compounds as follows. For each plate (4 compounds/plate) 600 μL were added to 4 Bio-Rad Titertubes in a Titertube rack. […] Using Falcon Flexiplates, 100 μL of Hepes/Saline buffer or human serum were added to rows B through G. A multi-channel pipetter set to 180 μL was used to with four tips spaced evenly the pipetter. Each set of four tubes was mixed 5 times and 180 μL of 2× compound was transferred to the first column of each compound dilution in Row B, leaving Row A empty. 180 μL were added to the other wells in Row A. Serial dilutions were performed down the plate by transferring 50 μL to the next dilution and mixing 5 times, changing tips each time after mixing.
A 20 μg/mL solution in Hepes/Saline buffer or human serum, of 21/6 antibody was the positive control and was set aside in a reagent trough to add to cell suspension plate.
The cell staining was accomplished by first harvesting the log-phase Jurkat™ cells by centrifugation in 50 mL tubes (1100 rpm for 5 minutes). The cells were resuspended in 50 mL PBS++, spun, and resuspend in 20 mL PBS++. The cells were stained by adding 20 μL of Calcein AM for 30 minutes RT. The volume was brought to 50 mL with Hepes/Saline buffer and the cells were counted, spun, and resuspend to 2×10^6 cells/mL in Hepes/Saline buffer or human serum.
The compounds were incubated using the following procedure. In a new flexiplate, 65 μL of stained cells were added to Rows B through H. Then 65 μL of 2× compounds were added to the appropriate rows following the plate setup and mixed three times. 65 μL of 2×-21/6 antibody were added to Row H and mixed 3×. Finally the plate was incubated at room temperature for 30 minutes.
Fibronectin adhesion was measured using a fluorescent plate reader at EX 485/EM 530 after the following work up procedure. After incubation, the cells were mixed three times and 100 μL were transfered to the Fibronectin coated plates and incubated at 37° C. for about 35 minutes. Each plate was washed, row by row, by gently pipetting 100 μL of RT. PBS++ down the sides of the wells and turning the plate 90 degrees to aspirate. This procedure was repeated for a total of 3 washes. Each well was filled with 100 μL after washing by pipetting down the side of the well.
An IC50 value was calculated for each compound, both in the presence of the human serum and in the absence of human serum.

[2] = Cassette Dosing and Serum Analysis for Determination of Bioavailability; type: in vivo, rat; conditions: average AUC 0→12 h, male Sprague Dawley rats, single oral cassette dose (6 compounds, total dose 10 mg/kg), plasma
Experimental: The cassette included 5 test articles and a standard compound, for a total dose of 10 mg/kg. Each compound/test article was converted to the sodium salt with equimolar 1 N NaOH and dissolved in water at 2 mg/mL. The cassette was prepared by mixing equal volumes of each of the six solutions. The cassette dosing solution was mixed well and then the pH was adjusted to 7.5–9. The dosing solution was prepared the day before the study and stirred overnight at room temperature.
Male Sprague Dawley (SD) rats from Charles River Laboratories, 6–8 weeks old were used in this screen. Rats were quarantined for at least one day and had continuous access to food and water. On the night before the administration of the cassette, the rats were fasted for approximately 16 h.
Four SD rats were assigned in each cassette. A single dose of the dosing solution was administered orally to each rat. The dosing volume (5 mL/kg) and time were recorded and rats were fed 2 h after dosing.
Blood samples were collected via cardiac puncture at the following time points: 4 h, 8 h and 12 h. Immediately prior to blood collection, rats were anesthetized with CO2 gas within 10–20 seconds. After the 12-h samples were collected, the rats were euthanized via CO2 asphyxiation followed by cervical dislocation.
Blood samples were kept in heparinized microtainer tubes under sub-ambient temperature (4° C.) before they were processed. Blood samples were centrifuged (10000 rpm for 5 minutes) and plasma samples were removed and stored in a −20° C. freezer until analyzed for drug levels. Drug levels in the plasma were analyzed using the following protocol for direct plasma precipitation.
The in vivo plasma samples were prepared in a 1.5 mL 96-well plate, by adding, in order, 100 μL of the test plasma, 150 μL of methanol, followed by vortexing for 10–20 seconds. 150 μL of 0.05 ng/μL of an Internal Standard in acetonitrile were added and vortexed for 30 seconds.
The standard curve samples were prepared in a 1.5 mL 96-well plate, by adding, in order, 100 μL of control mouse plasma, followed by 150 μL of methanol and vortexing for 10–20 seconds. 150 μL of 0.05 ng/μL of an Internal Standard in acetonitrile were added and vortexed for 30 seconds. The samples were spiked with 0–200 ng (10 concentrations) of the compound of interest in 50% methanol to obtain a standard curve range of 0.5 ng/mL–2,000 ng/mL. Again, the sample was vortexed for 30 seconds.
The samples were then spun for 20–30 minutes at 3000 rpm in an Eppendorf microfuge before 80–90% of supernatant was transferred into a clean 96-well plate. The organic solvent was then evaporated until the samples were dry (under N2 at 40° C./30–60 min (Zymark Turbovap)).
The residue was then dissolved in […] mobile phase (50% CH3OH/0.1% TFA). LC/MS/MS was then run using a PE-Sciex API-3000 triple quadurpole mass spectrometer (SN0749707), Perkin-Elmer, Series200auto-sampler, and shimadzu 10A pump. Acquisition was done with PE-Sciex Analyst (v1.1) and data analysis and quantification were accomplished using PE-Sciex Analyst (v1.1). A 5–50 μL sample volume was injected onto a reverse phase ThermoHypersil DASH-18 column (Keystone 2.0×20 mm, 5 μm, PN: 8823025-701) using a mobile phase of 25% CH3OH, 0.1% TFA-100% CH3OH, 0.1% TFA. The run time was about 8 minutes at a flow rate of about 300 μL/minutes.
The Area Under the Curve (AUC) was calculated using the linear trapezoidal rule from t=0 to the last sampling time tx (see Handbook of Basic Pharmacokinetics, Wolfgang A. Ritschel and Gregory L. Kearns, 5th ed, 1999). AUC^0→tx=S((Cn+Cn+1)/2))·(tn+1−tn)[(μg/mL)h]

T1 sequence (P13612 34-1032): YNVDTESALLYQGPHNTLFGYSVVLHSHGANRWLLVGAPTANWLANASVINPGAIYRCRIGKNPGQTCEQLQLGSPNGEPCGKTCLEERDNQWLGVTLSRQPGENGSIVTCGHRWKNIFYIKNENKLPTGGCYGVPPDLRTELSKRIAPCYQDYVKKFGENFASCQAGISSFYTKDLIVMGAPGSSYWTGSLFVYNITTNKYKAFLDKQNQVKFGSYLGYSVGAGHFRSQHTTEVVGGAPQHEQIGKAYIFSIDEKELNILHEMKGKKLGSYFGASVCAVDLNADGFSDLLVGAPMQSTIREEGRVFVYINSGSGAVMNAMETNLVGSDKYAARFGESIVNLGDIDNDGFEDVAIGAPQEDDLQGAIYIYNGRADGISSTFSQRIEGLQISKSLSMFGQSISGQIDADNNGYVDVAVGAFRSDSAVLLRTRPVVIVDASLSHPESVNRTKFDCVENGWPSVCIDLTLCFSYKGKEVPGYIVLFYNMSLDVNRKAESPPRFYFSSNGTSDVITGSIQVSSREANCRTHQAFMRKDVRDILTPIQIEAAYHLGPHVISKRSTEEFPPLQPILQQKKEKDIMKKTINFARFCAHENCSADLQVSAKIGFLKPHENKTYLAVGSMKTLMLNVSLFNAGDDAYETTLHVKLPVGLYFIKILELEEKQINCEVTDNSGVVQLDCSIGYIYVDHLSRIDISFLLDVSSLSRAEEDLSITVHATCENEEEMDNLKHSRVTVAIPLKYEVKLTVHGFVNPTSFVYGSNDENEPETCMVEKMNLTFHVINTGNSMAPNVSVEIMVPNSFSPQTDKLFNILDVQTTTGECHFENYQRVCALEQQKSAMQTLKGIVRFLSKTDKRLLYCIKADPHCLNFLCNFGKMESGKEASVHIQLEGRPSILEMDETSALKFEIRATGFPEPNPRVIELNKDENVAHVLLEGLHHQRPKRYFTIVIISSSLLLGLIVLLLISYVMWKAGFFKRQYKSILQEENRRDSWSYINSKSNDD
T1 sequence (P05556 21-798): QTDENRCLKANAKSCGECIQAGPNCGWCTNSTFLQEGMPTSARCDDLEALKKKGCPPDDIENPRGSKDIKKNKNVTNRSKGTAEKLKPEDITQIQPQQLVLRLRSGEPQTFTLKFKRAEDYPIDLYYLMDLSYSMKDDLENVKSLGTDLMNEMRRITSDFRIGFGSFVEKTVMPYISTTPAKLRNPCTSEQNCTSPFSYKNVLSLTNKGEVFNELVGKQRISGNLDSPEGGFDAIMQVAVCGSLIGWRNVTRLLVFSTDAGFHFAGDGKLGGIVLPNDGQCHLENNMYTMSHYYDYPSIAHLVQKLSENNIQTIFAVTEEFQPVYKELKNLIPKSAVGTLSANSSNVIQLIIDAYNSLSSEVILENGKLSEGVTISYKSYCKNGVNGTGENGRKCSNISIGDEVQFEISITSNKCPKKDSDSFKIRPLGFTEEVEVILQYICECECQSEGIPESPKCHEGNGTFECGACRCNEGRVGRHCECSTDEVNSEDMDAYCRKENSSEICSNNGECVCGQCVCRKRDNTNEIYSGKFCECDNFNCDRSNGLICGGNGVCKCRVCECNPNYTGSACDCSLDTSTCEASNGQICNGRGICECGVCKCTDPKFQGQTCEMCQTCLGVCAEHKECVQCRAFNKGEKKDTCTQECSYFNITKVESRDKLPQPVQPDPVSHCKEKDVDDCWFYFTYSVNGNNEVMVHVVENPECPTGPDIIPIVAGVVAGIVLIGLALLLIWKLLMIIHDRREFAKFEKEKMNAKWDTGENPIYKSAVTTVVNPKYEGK

SMILES | IC50 ([1]; containing human serum) [nM] | IC50 ([1]; without the human serum) [nM] | AUC [2]
CCN(CC)c1ncc(N(CC)S(=O)(=O)c2ccc(F)cc2)c(N[C@@H](Cc2ccc(OC(=O)N3CCCC3)cc2)C(=O)O)n1 [Example 2, N-(2-[N′,N′-diethylamino]-5-[N″-(4-fluorophenylsulfonyl)-N″-ethylamino]pyrimidin-4-yl)-4′-(pyrrolidin-1-ylcarbonyloxy)-L-phenylalanine] | 604 | 1.59 | 15.971 (μg/mL)h
CCN(CC)c1ncc(N(C)S(=O)(=O)c2ccc(F)cc2)c(N[C@@H](Cc2ccc(OC(=O)N3CCCC3)cc2)C(=O)O)n1 [Example 3, N-(2-[N′,N′-diethylamino]-5-[N″-(4-fluorophenylsulfonyl)-N″-methylamino]pyrimidin-4-yl)-4′-(pyrrolidin-1-ylcarbonyloxy)-L-phenylalanine] | 1730 | 6.51 | 22.271 (μg/mL)h
CCN(CC)c1ncc(N(C)S(=O)(=O)c2ccc(Cl)cc2)c(N[C@@H](Cc2ccc(OC(=O)N3CCCC3)cc2)C(=O)O)n1 [Example 4, N-(2-[N′,N′-diethylamino]-5-[N″-(4-chlorophenylsulfonyl)-N″-methylamino]pyrimidin-4-yl)-4′-(pyrrolidin-1-ylcarbonyloxy)-L-phenylalanine] | 2280 | 19 | 13.829 (μg/mL)h
CCN(CC)c1ncc(N(C)S(=O)(=O)c2ccc(F)cc2)c(N[C@@H](Cc2ccc(OC(=O)N3CCCCC3)cc2)C(=O)O)n1 [Example 5, N-(2-[N′,N′-diethylamino]-5-[N″-(4-fluorophenylsulfonyl)-N″-methylamino]pyrimidin-4-yl)-4′-(piperidin-1-ylcarbonyloxy)-L-phenylalanine] | 1570 | 6 | 2.1654 (μg/mL)h
CCN(CC)c1ncc(N(CC)S(=O)(=O)c2ccc(F)cc2)c(N[C@@H](Cc2ccc(OC(=O)N3CCCCC3)cc2)C(=O)O)n1 [Example 6, N-(2-[N′,N′-diethylamino]-5-[N″-(4-fluorophenylsulfonyl)-N″-ethylamino]pyrimidin-4-yl)-4′-(piperidin-1-ylcarbonyloxy)-L-phenylalanine] | 702 | 4.67 | 0.5125 (μg/mL)h
CCN(CC)c1ncc(N(CC)S(=O)(=O)c2ccc(F)cc2)c(N[C@@H](Cc2ccc(OC(=O)N3CCC3)cc2)C(=O)O)n1 [Example 7, N-(2-[N′,N′-diethylamino]-5-[N″-(4-fluorophenylsulfonyl)-N″-ethylamino]pyrimidin-4-yl)-4′-(azetidin-1-ylcarbonyloxy)-L-phenylalanine] | 86.2 | 1.63 | 0.8979 (μg/mL)h

Second part, the molecule after the results:

IC50 ([1]; containing human serum) [nM] | IC50 ([1]; without the human serum) [nM] | AUC [2] | SMILES
409 | 17 | 14.798 (μg/mL)h | CCN(CC)c1ncc(N(CC)S(=O)(=O)c2ccc(Cl)cc2)c(N[C@@H](Cc2ccc(OC(=O)N3CCCC3)cc2)C(=O)O)n1 [Example 1, N-(2-[N′,N′-diethylamino]-5-[N″-(4-chlorophenylsulfonyl)-N″-ethylamino]pyrimidin-4-yl)-4′-(pyrrolidin-1-ylcarbonyloxy)-L-phenylalanine]
– | – | 90.317 (μg/mL)h | C#CCN(c1cnc(N(CC)CC)nc1N[C@@H](Cc1ccc(OC(=O)N2CCCC2)cc1)C(=O)O)S(=O)(=O)c1ccc(F)cc1 [Example 15, N-(2-[N′,N′-diethylamino]-5-[N″-(4-fluorophenylsulfonyl)-N″-propargylamino]pyrimidin-4-yl)-4′-(pyrrolidin-1-ylcarbonyloxy)-L-phenylalanine]
6280 | 6.93 | – | C#CCN(c1cnc(N(CC)CC)nc1N[C@@H](Cc1ccc(OC(=O)N2CCCC2)cc1)C(=O)O)S(=O)(=O)c1ccc(Cl)cc1 [Example 19, N-(2-[N′,N′-diethylamino]-5-[N″-(4-chlorophenylsulfonyl)-N″-propargylamino]pyrimidin-4-yl)-4′-(pyrrolidin-1-ylcarbonyloxy)-L-phenylalanine]
